Three compounds from PubChem BioAssay AID588618 (The Scripps Research Institute Molecular Screening Center, 2011) can be followed below.

The target of this assay is Early growth response protein 1 (Homo sapiens) (UniProt P18146). Put plainly: altered EGR1 protein amount, DLD-1 – DLD1 cells, chemiluminescent western blot, powder samples, counter-screen for KLF5 inhibitor project, late-stage follow-up (AID 588618). As to conditions: DLD-1 cells, 24 h, at 10 µM, active compounds read high.

The structures appear in SMILES notation.

Sequence of Early growth response protein 1 (Homo sapiens) (P18146 whole entry, looked up): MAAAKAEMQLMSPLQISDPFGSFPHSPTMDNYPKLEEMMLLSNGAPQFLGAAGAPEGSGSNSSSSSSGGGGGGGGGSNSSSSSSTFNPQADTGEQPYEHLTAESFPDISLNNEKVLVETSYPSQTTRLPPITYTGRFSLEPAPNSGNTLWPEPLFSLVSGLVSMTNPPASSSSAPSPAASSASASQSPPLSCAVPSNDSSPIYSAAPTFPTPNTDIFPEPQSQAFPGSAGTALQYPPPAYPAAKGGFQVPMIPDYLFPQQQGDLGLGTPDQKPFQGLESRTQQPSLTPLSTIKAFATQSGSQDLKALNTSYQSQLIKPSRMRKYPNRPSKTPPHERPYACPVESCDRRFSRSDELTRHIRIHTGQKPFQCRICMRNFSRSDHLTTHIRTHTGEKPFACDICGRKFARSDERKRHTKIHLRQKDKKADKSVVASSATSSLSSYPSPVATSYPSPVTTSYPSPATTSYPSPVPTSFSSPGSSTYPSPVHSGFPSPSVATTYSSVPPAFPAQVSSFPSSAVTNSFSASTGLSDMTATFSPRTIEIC

For the compound `CN(C(=O)COC(=O)/C=C/c1cccc([N+](=O)[O-])c1)C1CCS(=O)(=O)C1` (stereo not drawn), the inhibition (usually the relative decrease from the control value, in per cent) was 19.4%.

As to `CN(C(=O)CNC(=O)/C=C/c1cccc(Cl)c1)C1CCS(=O)(=O)CC1`, the inhibition is 21.1%. For `CN(C(=O)CNC(=O)/C=C/c1cccc(Cl)c1)C1CCS(=O)(=O)C1` (stereo not drawn), the inhibition was 14.3%.
